Read-outs that look alike come from different tables or passages of the source.
Legend:
[1] = target: AKR1C3 (Homo sapiens (Human), UniProt P42330); test: AKR enzyme inhibition assay, NADP+ dependent oxidation of S-tetralol, AKR1C3; format: biochemical; conditions: for selectivity over AKR1C2: AKR1C3 over AKR1C2; for Selectivity 1C2:1C3: ratio of AKR1C2 to AKR1C3 IC50
Procedure: (§4) Structure-Activity Relationship: The ability of compounds to inhibit AKR1C3 in the first instance were determined by measuring the NADP+ dependent oxidation of S-tetralol catalyzed by recombinant enzyme as described herein. […] Assay of enzyme activity: The dehydrogenase activities of AKR1C1, AKR1C2, and AKR1C3 were determined by measuring the formation of NADH formation at 340 nm using Beckman DU640 spectrophotometer. […] After continuously monitoring for 5 min, the increase in UV absorption using different concentrations of enzyme were recorded to calculate the initial velocity and determine enzyme specific activity. IC50 value determination: The inhibitory potency for each compound was represented by IC50 value and measured as described before. […] The concentration of S-tetralol used in the assays for each AKR1C isoform was equal to the Km value for the respective enzyme so that IC50 values could be directly compared assuming a competitive pattern of inhibition. […] In this equation, “range” is the fitted uninhibited value minus the “background”, and “S” is a slope factor. “I” is the concentration of inhibitor. The equation assumes that y falls with increasing “I”.

[2] = target: AKR1C1 (Homo sapiens (Human), UniProt Q04828); test: AKR enzyme inhibition assay, NADP+ dependent oxidation of S-tetralol, AKR1C1; format: biochemical; conditions: Table 2; recombinant enzyme, S-tetralol at Km; read-out: IC50 ± SD AKR1C1
Procedure: (§5) Assay of enzyme activity: The dehydrogenase activities of AKR1C1, AKR1C2, and AKR1C3 were determined by measuring the formation of NADH formation at 340 nm using Beckman DU640 spectrophotometer. […] After continuously monitoring for 5 min, the increase in UV absorption using different concentrations of enzyme were recorded to calculate the initial velocity and determine enzyme specific activity. IC50 value determination: The inhibitory potency for each compound was represented by IC50 value and measured as described before. […] The concentration of S-tetralol used in the assays for each AKR1C isoform was equal to the Km value for the respective enzyme so that IC50 values could be directly compared assuming a competitive pattern of inhibition. […] In this equation, “range” is the fitted uninhibited value minus the “background”, and “S” is a slope factor. “I” is the concentration of inhibitor. The equation assumes that y falls with increasing “I”.

[3] = target: AKR1C2 (Homo sapiens (Human), UniProt P52895); test: AKR enzyme inhibition assay, NADP+ dependent oxidation of S-tetralol, AKR1C2 counter-screen; format: biochemical; conditions: Table 2; recombinant enzyme, S-tetralol at Km; read-out: IC50 ± SD AKR1C2
Procedure: as §4

[4] = target: AKR1C4 (Homo sapiens (Human), UniProt P17516); test: AKR enzyme inhibition assay, AKR1C4; format: biochemical; conditions: Table 2; recombinant enzyme; read-out: IC50 ± SD AKR1C4
Procedure: as §5

[5] = In vitro stability in simulated gastric fluid (SGF); format: in vitro ADME; conditions: SGF for 1 h
Procedure: (§1) In vitro stability studies: Gastrointestinal (GI) fluid stability studies were performed in simulated gastric fluid (SGF) and simulated intestinal fluid (SIF). All the required media were prepared according to the USP guidelines. Mouse plasma stability were performed for neat-spiked and plasma spiked samples (pre-extraction) at 37° C. for 4 h. In addition to the analyte stability in matrix, at 48 h stability of the extracted samples was performed at 4° C. in the autosampler.

[6] = In vitro stability in simulated intestinal fluid (SIF); format: in vitro ADME; conditions: SIF for 2 h
Procedure: as §1

[7] = In vitro stability in mouse plasma; format: in vitro ADME; conditions: mouse plasma
Excerpt: (§2) Liquid chromatography and mass spectrometry (LCMS/MS): The ultra-performance liquid chromatography mass spectrometry system (UPLC-MS/MS) consisted of a Shimadzu 8060NX mass spectrometer and Nexera Series UPLC (Shimadzu Scientific Instruments, Columbia, MD). Analyte separation was achieved utilizing an Acquity UPLC® BEH column (C18, 2.1×100 mm, 1.7 μm) equipped with an Acquity UPLC C18 guard column (Waters, Inc. Milford MA). The mobile phase consisted of water containing 0.1% formic acid (mobile phase A) and methanol (mobile phase B) at a flow rate of 0.25 mL/min operated at room temperature. The total run time was set to last 7.5 min with a gradient elution as follows: 35% B, increasing to 95% B over 3.5 minutes, then held constant for 3.0 minutes, and finally brought back to the initial condition of 35% B in 0.20 minutes followed by 1-minute re-equilibration. The injection volume (2 μL) was consistent for all samples. The auto-sampler chamber was maintained at 4° C. throughout the analysis.
Plasma sample preparation: Plasma samples were prepared by spiking 5 μL of the appropriate calibration (CC) and quality (QCs) control working stock into a 45 μL blank mouse plasma. The concentration of the CC ranged from 0.2-1000 ng/mL with the final concentrations of 0.2, 0.5, 1, 5, 10, 50, 100, 500, and 1000 ng/mL. A simple protein precipitation technique using Phree 96 well phospholipid elimination plate (Phenomenex Inc, Torrance CA.) was utilized to isolate analyte from the plasma matrix. The CC, QCs and study plasma samples were added to Phree 96 well plate and spiked with 10 μL of IS a working solution. The precipitation of the matrix proteins was carried out using 300 μL of ice-cold acetonitrile. The plate was again vortexed on mixmate at 950 rpm for 2 min followed by applied 5 psi positive pressure for 10 min (Resprep VM-96 Vacuum Manifold for 96-Well Plates, Catalog #25858) (Restek; Bellefonte, PA) to collect the supernatant. Two microliters of the reconstituted sample was injected into LC-MS/MS for analysis. […]

[8] = In vitro metabolic stability in mouse liver microsomes; format: in vitro ADME; conditions: 1 μg/mL, % parent remaining
Procedure: (§3) In vitro metabolic stability in liver microsomes: Metabolic stability was assessed using mouse and human liver microsomes, (XenoTech, LLC, Lenexa, KS). Incubation of A1-r and 4r with the microsome fractions was performed in triplicate utilizing a concentration of 1 μg/mL as previously described. Serial samples (40 μL) were collected at selected time intervals and quenched with 300 μL of acetonitrile and then spiked with 10 μL of IS (0.5 μg/mL). All the samples were vortexed and centrifuged at 13,000×g for 15 min, and the supernatant was collected and transferred to an autosampler vial and injected (2 μL) onto the LC-MS/MS system. Testosterone, 7-HC and diclofenac were used as positive controls to ensure that the microsomes and incubation conditions were appropriate to conduct metabolism studies.

[9] = In vitro metabolic stability in human liver microsomes; format: in vitro ADME; conditions: 1 μg/mL, % parent remaining
Procedure: as §3

[10] = In vivo pharmacokinetic study, oral gavage; design: species or system BALB/c mice
Excerpt: as §2
The MS/MS system was operated at unit resolution in the multiple reaction monitoring (MRM) in positive ESI mode, using precursor ion>product ion combinations of 427.20>105.10 for A1-r and 413.15>265.10 m/z for 4r. The mass spectrometer source settings were optimized to the following: nebulizer gas: 2.0 L/min; heating gas: 10 L/min; drying gas: 10 L/min; interface temperature: 300° C.; desolvation line temperature: 250° C.; heat block temperature: 400° C. Data acquisition and quantitation were performed using LabSolutions software Ver.5.99 (Shimadzu Scientific Inc, Columbia, MD).
Plasma sample preparation: Plasma samples were prepared by spiking 5 μL of the appropriate calibration (CC) and quality (QCs) control working stock into a 45 μL blank mouse plasma. The concentration of the CC ranged from 0.2-1000 ng/mL with the final concentrations of 0.2, 0.5, 1, 5, 10, 50, 100, 500, and 1000 ng/mL. A simple protein precipitation technique using Phree 96 well phospholipid elimination plate (Phenomenex Inc, Torrance CA.) was utilized to isolate analyte from the plasma matrix. The CC, QCs and study plasma samples were added to Phree 96 well plate and spiked with 10 μL of IS a working solution. The precipitation of the matrix proteins was carried out using 300 μL of ice-cold acetonitrile. The plate was again vortexed on mixmate at 950 rpm for 2 min followed by applied 5 psi positive pressure for 10 min (Resprep VM-96 Vacuum Manifold for 96-Well Plates, Catalog #25858) (Restek; Bellefonte, PA) to collect the supernatant. Two microliters of the reconstituted sample was injected into LC-MS/MS for analysis.
In vivo pharmacokinetic studies: Animal studies were approved by the University of Nebraska Medical Center (UNMC) Institutional Animal Care and Use Committee (IACUC protocol number 17-046-06-FC). BALB/c mice were purchased from Charles River Labs. Pharmacokinetic (PK) studies of A1-r and 4r were conducted in BALB/c mice. Animals were housed in the University of Nebraska Medical Center animal facility, for at least 7 days prior to the experiments, in order to acclimatize the animals to the laboratory conditions, at a temperature of 23-24° C., relative humidity of 40-70% and 12/12 h light/dark cycles with free access to food and water. The dosing solution was made of DMSO-Polyethylene glycol 400 (PEG400)-Propylene glycol (PG)-EtOH-Cremophore-PBS (2/20/10/10/5/53% v/v). Compound A1-r or 4r (10 mg/kg) was administered separately by oral gavage. After dosing, approximately 50 μL of blood was collected from the maxillary vein at 5, 15, 30 minutes and 1, 2, 7, and 24 hr (5 mice/group/per time point). A total of three blood samples were collected, with the third blood sample a terminal collection. Plasma was separated by centrifugation at 4,000×g at 4° C. for 10 minutes. The collected plasma samples were stored at −80° C. until analysis. […]

[11] = Table 2, recombinant enzyme, S-tetralol at Km, read-out: IC50 ± SD AKR1C3
[12] = after oral administration (10 mg/kg) of 4r, Balb/c mice, plasma, mean ± SD, n = 5
[13] = after oral administration (10 mg/kg) of A1-r, Balb/c mice, mean ± SD, n = 5
[14] = after oral administration (10 mg/kg) of A1-r, Balb/c mice, plasma, mean ± SD, n = 5

Sequence of AKR1C4 (P17516 whole entry): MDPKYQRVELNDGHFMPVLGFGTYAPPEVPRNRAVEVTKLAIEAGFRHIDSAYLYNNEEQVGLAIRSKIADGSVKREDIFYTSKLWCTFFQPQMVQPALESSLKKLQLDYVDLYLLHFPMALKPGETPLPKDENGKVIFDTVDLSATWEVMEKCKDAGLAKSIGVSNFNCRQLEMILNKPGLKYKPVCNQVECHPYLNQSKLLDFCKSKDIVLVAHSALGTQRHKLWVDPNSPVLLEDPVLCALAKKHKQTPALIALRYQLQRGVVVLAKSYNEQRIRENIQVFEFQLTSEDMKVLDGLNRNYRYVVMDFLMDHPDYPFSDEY
Sequence of AKR1C1 (Q04828 whole entry): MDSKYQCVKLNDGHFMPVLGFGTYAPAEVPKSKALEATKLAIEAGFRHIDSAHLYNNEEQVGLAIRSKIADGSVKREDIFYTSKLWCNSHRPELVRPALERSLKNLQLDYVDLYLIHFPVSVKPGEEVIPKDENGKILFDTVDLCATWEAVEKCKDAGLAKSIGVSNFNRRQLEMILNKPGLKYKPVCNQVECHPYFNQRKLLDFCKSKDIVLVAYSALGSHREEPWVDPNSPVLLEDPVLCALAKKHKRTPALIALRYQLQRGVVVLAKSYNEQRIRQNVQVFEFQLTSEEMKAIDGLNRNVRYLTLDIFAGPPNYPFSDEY
Sequence of AKR1C3 (P42330 whole entry): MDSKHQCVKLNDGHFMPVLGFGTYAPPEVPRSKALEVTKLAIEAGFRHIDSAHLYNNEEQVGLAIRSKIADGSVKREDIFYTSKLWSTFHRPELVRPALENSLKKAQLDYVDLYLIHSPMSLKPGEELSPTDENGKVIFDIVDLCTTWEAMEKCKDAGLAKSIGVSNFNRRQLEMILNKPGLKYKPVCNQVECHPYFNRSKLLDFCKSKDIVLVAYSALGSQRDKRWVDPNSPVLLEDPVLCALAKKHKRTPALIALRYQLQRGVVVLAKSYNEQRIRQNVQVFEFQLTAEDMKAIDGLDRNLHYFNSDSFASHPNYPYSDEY
Sequence of AKR1C2 (P52895 whole entry): as the sequence (Q04828 whole entry) above, with T38V, R47H, L54V, C87S, V151M, R170H, Q172L counted along it

| selectivity over AKR1C2 [1] | IC50 ([1]; read-out: IC50 AKR1C3) | IC50 [2] | IC50 [3] | IC50 [4] | Selectivity 1C2:1C3 ([1]; Table 2) | IC50 [1, 11] | Structure (SMILES) | also measured |
| --- | --- | --- | --- | --- | --- | --- | --- | --- |
| 140 fold | 0.1 µM | 78 ± 9.3 µM | 14 ± 4.1 µM | 6.1 ± 0.47 µM | – | – | Cc1ccc(CNC(=O)c2cc(/C=C/C(=O)O)cc(-c3ccc4ccccc4c3)c2)cc1 [Compound A1-o, (E)-3-(3-((4-Methylbenzyl)carbamoyl)-5-(naphthalen-2-yl)phenyl)acrylic acid] | – |
| – | – | 80 ± 13 µM | 12 ± 2.8 µM | 22 ± 2.3 µM | 109 | 0.11 ± 0.017 µM | Cc1ccc(CNC(=O)c2cc(/C=C/C(=O)O)cc(-c3ccc4cccnc4c3)c2)cc1 [Compound A1-p, (E)-3-(3-((4-Methylbenzyl)carbamoyl)-5-(quinolin-7-yl)phenyl)acrylic acid] | – |
| – | 0.094 µM | 70 ± 48 µM | 12.5 ± 2.1 µM | 31 ± 2.9 µM | 133 | – | Cc1ccc(CNC(=O)c2cc(/C=C/C(=O)O)cc(-c3ccc4nccnc4c3)c2)cc1 [Compound A1-q, (E)-3-(3-((4-Methylbenzyl)carbamoyl)-5-(quinoxalin-6-yl)phenyl)acrylic acid] | – |
| – | – | > 100 µM | 62 ± 21 µM | 43 ± 6 µM | 1216 | 0.051 ± 0.006 µM | Cc1ccc(CNC(=O)c2cc(/C=C/C(=O)O)cc(-c3ccc4ncnn4c3)c2)cc1 [Compound A1-r, (E)-3-(3-([1,2,4]triazolo[1,5-a]pyridin-6-yl)-5-((4-methylbenzyl)carbamoyl)phenyl)acrylic acid] | stability in simulated gastric fluid (SGF) [5]: stable; stability in simulated intestinal fluid (SIF) [6]: stable; time stable in mouse plasma [7]: over 240 minutes; metabolic stability in MLM [8]: stable; metabolic stability in HLM [9]: stable; AUC0-t [10, 12]: 6382.8 ng·h/mL; Cmax [10, 12]: 11599.4 ng/mL; Tmax [10, 12]: 12 min; CI/F [10, 13]: 323 mL/min/kg; Extrapolated AUC % [10, 13]: 28.8%; Vz/F [10, 13]: 405.0 L/kg; AUC0-INF [10, 14]: 515.1 ng·h/mL; AUC0-t [10, 14]: 367.6 ng·h/mL; Cmax [10, 14]: 174.8 ng/mL; Tmax [10, 14]: 6 min; t1/2 [10, 14]: 864 min; detection at the last study point (24 hours) ([10]; oral 10 mg/Kg 4r, 24 hours): detected; time at which detected in plasma after oral administration ([10]; oral 10 mg/Kg, male Balb/C mice): ≤ 5 min |
| 200 fold | – | > 100 µM | 22 ± 4.5 µM | 53 ± 7.1 µM | – | 0.11 ± 0.011 µM | Cc1ccc(CNC(=O)c2cc(/C=C/C(=O)O)cc(-c3ccc4c(c3)OCCO4)c2)cc1 [Compound A1-s, (E)-3-(3-(2,3-Dihydrobenzo[b][1,4]dioxin-6-yl)-5-((4-methylbenzyl)carbamoyl)phenyl)acrylic acid] | – |
| 221 fold | – | 36 ± 5.5 µM | 31 ± 2.8 µM | 11 ± 3.1 µM | – | 0.14 ± 0.015 µM | Cc1ccc(CNC(=O)c2cc(/C=C/C(=O)O)cc(-c3ccc(-n4c5ccccc5c5ccccc54)cc3)c2)cc1 [Compound A1-v, (E)-3-(4′-(9H-Carbazol-9-yl)-5-((4-methylbenzyl)carbamoyl)-[1,1′-biphenyl]-3-yl)acrylic acid] | – |
| 354 fold | 0.11 µM | > 100 µM | 39 ± 9 µM | 70 ± 11 µM | – | – | C/C=C/Cc1cc(/C=C/C(=O)O)cc(C(=O)NCc2ccc(C)cc2)c1 [Compound A1-z, (E)-3-(3-((E)-But-2-en-1-yl)-5-((4-methylbenzyl)carbamoyl)phenyl)acrylic acid] | – |

| Structure (SMILES) | selectivity over AKR1C2 [1] | IC50 ([1]; read-out: IC50 AKR1C3) | IC50 [2] | IC50 [3] | IC50 [4] | Selectivity 1C2:1C3 ([1]; Table 2) | IC50 [1, 11] | also measured |
| --- | --- | --- | --- | --- | --- | --- | --- | --- |
| Cc1ccc(CNC(=O)c2cc(/C=C/C(=O)O)cc(-c3ccc4c(c3)OCO4)c2)cc1 [Compound A1-t, (E)-3-(3-(Benzo[d][1,3]dioxol-5-yl)-5-((4-methylbenzyl)carbamoyl)phenyl)acrylic acid] | – | 0.11 µM | > 100 µM | 36 ± 9.7 µM | 16 ± 1.6 µM | – | – | – |
